One experiment addresses T1, FGFR1 (Homo sapiens, UniProt P11362).
T1 construct: purchased Carna 08-133
Description: FGFR1 Biochemical Caliper Assay (KinEASE-TK kit). Conditions: ratio FGFR1/FGFR2 of the biochemical assay. The protocol: (§1) Compounds of the present invention were tested in a FGFR1, FGFR2, and FGFR3 Biochemical Caliper Assay. Enzyme activity was monitored using KinEASE-TK kit (CisBio, Cat.No. 62TK0PEC) according to manufacturer's instructions. […] Final enzyme concentration was 0.2 nM for FGFR1 and FGFR3, 0.07 nM for FGFR2. Compounds were prepared in 10 mM DMSO and serially diluted into 10 concentrations by 3-fold dilution. Prior to the initiation of the reaction by adding TK-substrate/ATP mixture, the compounds were incubated with protein for 10 min at RT. […] Plates were quenched by adding TK-antibody-Cryptate and Sa-XL665 mixture. After 60 min in the stop solution, read the signal on microplate reader (Molecular Devices, i3x), excitation of 320 nm and emission of 615 nm and 665 nm with a […]. IC50 values were calculated using Prism 7 (GraphPad).

The target of another experiment is T2, FGFR2 (Homo sapiens, UniProt P21802).
T2 construct: purchased Carna 08-134
Briefly: FGFR2 Biochemical Caliper Assay (KinEASE-TK kit). The settings on record: 0.07 nM FGFR2; compound incubated with protein 10 min, reaction 45 min at RT; read-out: FGFR2 Cliper IC50. The protocol:
Compounds of the present invention were tested in a FGFR1, FGFR2, and FGFR3 Biochemical Caliper Assay.
as §1, with “Enzyme” for “Compounds of the present invention were tested in a FGFR1, FGFR2, and FGFR3 Biochemical Caliper Assay. Enzyme”

A further experiment concerns the target T3, FGFR3 (Homo sapiens, UniProt P22607).
T3 construct: purchased Carna 08-135
Description: FGFR3 Biochemical Caliper Assay (KinEASE-TK kit). The settings on record: ratio FGFR3/FGFR2 of the biochemical assay. On the procedure:
as §1

Another experiment concerns SNU16 cells. Description: SNU16 Cancer Cell Line Proliferation Assay (CellTiter-Glo). Type of experiment: cell-based. The settings on record: Homo sapiens, SNU-16, 72 h. On the procedure:
Compounds of the present invention were also tested in a SNU16 Cancer Cell Line Proliferation Assay.
SNU16 cells were plated in 96-well clear bottom/white plate(Costar, Cat.No. 3610) at 5000 cells/well in 100 μl medium. Test compounds were prepared in a 10 mM DMSO stock solution and serially diluted into 9 concentrations by 3-fold dilution. 0.5 μl of each concentration of compound was added into the cell culture plates and DMSO as a control. The plates were incubated for 72 h at 37° C. and 5% CO2 incubator. 50 μl CellTiter-Glo reagent (Promega, G7572) was added into each well and then the plates were shaken gently for 10 min at room temperature. Luminescence was read on microplate reader (Molecular Devices, i3x), IC50 values were calculated using Prism 7 (GraphPad).
On the technique in general: In ATP-based viability assays light output follows the ATP content of the culture.

T3 sequence (P22607 23-806): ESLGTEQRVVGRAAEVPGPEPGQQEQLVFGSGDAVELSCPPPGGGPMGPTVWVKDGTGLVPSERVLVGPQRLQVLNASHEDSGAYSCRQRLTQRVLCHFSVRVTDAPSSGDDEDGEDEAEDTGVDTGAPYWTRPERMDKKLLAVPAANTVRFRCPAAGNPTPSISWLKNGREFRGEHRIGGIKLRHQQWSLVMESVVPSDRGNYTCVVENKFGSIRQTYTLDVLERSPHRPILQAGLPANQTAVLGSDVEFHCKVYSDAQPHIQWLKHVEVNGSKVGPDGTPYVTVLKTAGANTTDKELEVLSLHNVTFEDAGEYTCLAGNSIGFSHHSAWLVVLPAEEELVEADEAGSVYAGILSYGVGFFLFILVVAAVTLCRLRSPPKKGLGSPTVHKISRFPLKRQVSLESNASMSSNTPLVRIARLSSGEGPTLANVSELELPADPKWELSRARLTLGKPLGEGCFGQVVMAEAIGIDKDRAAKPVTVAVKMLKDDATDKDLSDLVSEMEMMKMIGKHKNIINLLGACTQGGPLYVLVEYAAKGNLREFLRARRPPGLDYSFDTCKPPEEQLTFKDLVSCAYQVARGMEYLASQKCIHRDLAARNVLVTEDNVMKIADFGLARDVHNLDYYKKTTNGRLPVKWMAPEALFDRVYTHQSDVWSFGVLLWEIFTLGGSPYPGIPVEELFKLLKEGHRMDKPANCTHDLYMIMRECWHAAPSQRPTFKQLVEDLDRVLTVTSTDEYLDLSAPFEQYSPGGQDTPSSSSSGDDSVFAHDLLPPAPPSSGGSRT
T1 sequence (P11362 22-822): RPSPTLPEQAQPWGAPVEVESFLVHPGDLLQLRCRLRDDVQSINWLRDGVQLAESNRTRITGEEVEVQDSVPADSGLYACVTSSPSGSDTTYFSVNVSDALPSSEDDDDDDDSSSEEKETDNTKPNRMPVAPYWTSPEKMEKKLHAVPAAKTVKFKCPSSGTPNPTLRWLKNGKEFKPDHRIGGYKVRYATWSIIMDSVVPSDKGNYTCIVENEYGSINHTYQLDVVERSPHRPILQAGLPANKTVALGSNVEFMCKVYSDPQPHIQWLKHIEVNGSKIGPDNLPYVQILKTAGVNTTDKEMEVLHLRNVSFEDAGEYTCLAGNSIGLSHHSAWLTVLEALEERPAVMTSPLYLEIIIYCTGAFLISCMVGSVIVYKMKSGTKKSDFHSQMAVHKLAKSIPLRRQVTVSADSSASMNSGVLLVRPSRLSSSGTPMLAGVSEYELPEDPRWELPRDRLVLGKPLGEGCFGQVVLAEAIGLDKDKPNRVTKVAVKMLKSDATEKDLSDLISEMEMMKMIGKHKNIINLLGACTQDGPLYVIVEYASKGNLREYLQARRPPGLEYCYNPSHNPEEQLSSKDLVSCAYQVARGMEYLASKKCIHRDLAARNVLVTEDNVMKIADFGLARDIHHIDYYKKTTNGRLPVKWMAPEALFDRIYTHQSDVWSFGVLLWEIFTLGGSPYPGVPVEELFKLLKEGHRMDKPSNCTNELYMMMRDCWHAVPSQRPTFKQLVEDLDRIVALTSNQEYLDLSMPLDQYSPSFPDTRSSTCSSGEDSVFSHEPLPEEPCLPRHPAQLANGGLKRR
T2 sequence (P21802 22-821): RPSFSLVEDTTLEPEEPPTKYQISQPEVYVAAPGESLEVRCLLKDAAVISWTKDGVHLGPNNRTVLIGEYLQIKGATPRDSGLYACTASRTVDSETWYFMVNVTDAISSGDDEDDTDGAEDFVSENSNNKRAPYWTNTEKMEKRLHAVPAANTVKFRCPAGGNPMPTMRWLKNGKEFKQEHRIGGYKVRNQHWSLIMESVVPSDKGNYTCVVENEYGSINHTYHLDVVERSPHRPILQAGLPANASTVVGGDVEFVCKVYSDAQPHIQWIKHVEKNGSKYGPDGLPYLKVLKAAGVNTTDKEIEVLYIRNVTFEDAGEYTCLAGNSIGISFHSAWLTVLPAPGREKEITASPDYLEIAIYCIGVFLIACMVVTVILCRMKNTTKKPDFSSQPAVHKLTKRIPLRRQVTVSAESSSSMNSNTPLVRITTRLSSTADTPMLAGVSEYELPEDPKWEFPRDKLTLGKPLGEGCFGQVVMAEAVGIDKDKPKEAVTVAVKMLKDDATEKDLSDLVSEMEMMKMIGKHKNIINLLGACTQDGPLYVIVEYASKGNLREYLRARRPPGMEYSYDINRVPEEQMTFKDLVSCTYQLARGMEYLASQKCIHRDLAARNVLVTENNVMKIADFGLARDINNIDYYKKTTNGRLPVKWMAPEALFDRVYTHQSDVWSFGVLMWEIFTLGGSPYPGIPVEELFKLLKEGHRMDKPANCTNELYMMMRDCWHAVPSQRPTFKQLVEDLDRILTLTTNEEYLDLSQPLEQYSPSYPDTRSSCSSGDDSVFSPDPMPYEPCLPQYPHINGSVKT

A word on the IC50: it is the concentration that inhibits the measured activity by half. As to `C=CC(=O)Nc1ccc(-c2nn3ncnc(N)c3c2-c2ccc(C(=O)NCC(F)(F)F)c(OC)c2)cn1` [Compound 90, 4-(6-(6-acrylamidopyridin-3-yl)-4-aminopyrazolo[5,1-f] [1,2,4]triazin-5-yl)-2-methoxy-N-(2,2,2-trifluoroethyl)benzamide], at FGFR1, the “Selectivity FGFR1/FGFR2” value is recorded as “A (Selectivity of FGFR1/FGFR2 less than 500 but greater than or equal to 300)”. Also, the IC50 on FGFR2 is less than 5 nM; in the experiment with SNU16 cells, 10 to 50 nM. Further, the “Selectivity FGFR3/FGFR2” value at FGFR3 is “B (Selectivity of FGFR3/FGFR2 less than 100 but greater than or equal to 25)”.
In the case of `C=CC(=O)Nc1ccc(-c2c(-c3ccc(C(=O)NCC(F)(F)F)c(OC)c3)c3c(N)ncc(C#N)c3n2C2CC2)cc1` [Compound 351], on FGFR1, the “Selectivity FGFR1/FGFR2” value is reported as “A+ (Selectivity of FGFR1/FGFR2 greater or equal to 500)”. Further, the IC50 on FGFR2 was less than 5 nM; in the experiment on SNU16 cells, no more than 10 nM. The “Selectivity FGFR3/FGFR2” value on FGFR3 is listed as “B (Selectivity of FGFR3/FGFR2 less than 100 but greater than or equal to 25)”.
Taken in the same sequence, the figures for `C=C(F)C(=O)Nc1ccc(-c2[nH]c3c(C#N)cnc(N)c3c2-c2ccc(C(=O)NC3CC(F)(F)C3)c(OC)c2)cc1` [Compound 319, 4-(4-amino-7-cyano-2-(4-(2-fluoroacrylamido)phe-nyl)-1H-pyrrolo[3,2-c]pyridin-3-yl)-N-(3,3-difluorocyclobutyl)-2-methoxybenzamide] were “A (Selectivity of FGFR1/FGFR2 less than 500 but greater than or equal to 300)”, less than 5 nM, no more than 10 nM and “A+ (Selectivity of FGFR3/FGFR2 greater or equal to 150)”.
Take `C=CC(=O)Nc1ccc(-c2nn3ncnc(N)c3c2-c2ccc(C(=O)NC3CC3)c(OC)c2)c(OC)c1` [Compound 154, 4-(6-(4-acrylamido-2-methoxyphenyl)-4-aminopyrazolo[5,1-f][1,2,4]triazin-5-yl)-N-cyclopropyl-2-methoxybenzamide]: at FGFR1, the “Selectivity FGFR1/FGFR2” value is reported as “A+ (Selectivity of FGFR1/FGFR2 greater or equal to 500)”. Moreover, the IC50 at FGFR2 is less than 5 nM; with SNU16 cells, no more than 10 nM. Besides, the “Selectivity FGFR3/FGFR2” value at FGFR3 was “A (Selectivity of FGFR3/FGFR2 less than 150 but greater than or equal to 100)”.
In the case of `C=C(F)C(=O)Nc1ccc(-c2nn3ncnc(N)c3c2-c2ccc(C(=O)NC34CC(C3)C4)c(OC)c2)c(F)c1` [Compound 357, 4-(4-amino-6-(2-fluoro-4-(2-fluoroacryl amido)phenyl)pyrazolo[5,1-f][1,2,4]triazin-5-yl)-N-(bicyclo[1.1.1]pentan-1-yl)-2-methoxybenzamide], the “Selectivity FGFR1/FGFR2” value at FGFR1 was “A (Selectivity of FGFR1/FGFR2 less than 500 but greater than or equal to 300)”. Further, the values for the IC50 at FGFR2 and with SNU16 cells were less than 5 nM and no more than 10 nM, respectively. In addition, the “Selectivity FGFR3/FGFR2” value at FGFR3 was “A+ (Selectivity of FGFR3/FGFR2 greater or equal to 150)”.
Turning to `C=CC(=O)Nc1ccc(-c2c(-c3ccc(C(=O)NC4CC4)c(OC)c3)c3c(N)ncc(C#N)c3n2C)cc1` [Compound 105], the “Selectivity FGFR1/FGFR2” value at FGFR1 is listed as “A+ (Selectivity of FGFR1/FGFR2 greater or equal to 500)”. In addition, the IC50 at FGFR2 was less than 5 nM; in the experiment with SNU16 cells it was no more than 10 nM. The “Selectivity FGFR3/FGFR2” value on FGFR3 is listed as “A (Selectivity of FGFR3/FGFR2 less than 150 but greater than or equal to 100)”.
As to `C=C(F)C(=O)Nc1ccc(-c2nn3ncnc(N)c3c2-c2ccc(C(=O)NCC(F)F)c(OC)c2)c(F)c1` [Compound 289], the “Selectivity FGFR1/FGFR2” value at FGFR1 was “C (Selectivity of FGFR1/FGFR2 less than 200 but greater than or equal to 100)”. Besides, the figures for the IC50 on FGFR2 and in the experiment on SNU16 cells were greater than 10 nM and no more than 10 nM, respectively. The “Selectivity FGFR3/FGFR2” value on FGFR3 is “B (Selectivity of FGFR3/FGFR2 less than 100 but greater than or equal to 25)”.
As for `C=C(C)C(=O)Nc1ccc(-c2c(-c3ccc(Oc4nccc(C)n4)c(F)c3)c3c(N)ncc(C#N)c3n2C)c(C)c1` [Compound 501, N-(4-(4-amino-7-cyano-3-(3-fluoro-4-((4-methylpyrimidin-2-yl)oxy)phenyl)-1-methyl-1H-pyrrolo[3,2-c]pyridin-2-yl)-3-methylphenyl)methacrylamide], on FGFR1, the “Selectivity FGFR1/FGFR2” value is listed as “A+ (Selectivity of FGFR1/FGFR2 greater or equal to 500)”. The IC50 on FGFR2 was greater than 10 nM; with SNU16 cells, no more than 10 nM. For the same compound, on FGFR3, the “Selectivity FGFR3/FGFR2” value was “A+ (Selectivity of FGFR3/FGFR2 greater or equal to 150)”.
`[2H]C([2H])([2H])n1c(-c2ccc(NC(=O)C=C)cc2)c(-c2ccc(C(=O)NCC(F)(F)F)c(OC)c2)c2c(N)ncc(C#N)c21` [Compound 355, 4-(2-(4-acrylamidophenyl)-4-amino-7-cyano-1-(methyl-d3)-1H-pyrrolo[3,2-c]pyridin-3-yl)-2-methoxy-N-(2,2,2-trifluoroethyl)benzamide]: the “Selectivity FGFR1/FGFR2” value at FGFR1 is “A (Selectivity of FGFR1/FGFR2 less than 500 but greater than or equal to 300)”. Moreover, the IC50 at FGFR2 was less than 5 nM; with SNU16 cells, no more than 10 nM. Also, on FGFR3, the “Selectivity FGFR3/FGFR2” value is recorded as “A+ (Selectivity of FGFR3/FGFR2 greater or equal to 150)”.
As to `C=CC(=O)Nc1ccc(-c2nn3ncnc(N)c3c2-c2ccc(Oc3ccn(C)n3)c(F)c2)cc1` [Compound 402, N-(4-(4-amino-5-(3-fluoro-4-((1-methyl-1H-pyrazol-3-yl)oxy)phenyl)pyrazolo [5,1-f][1,2,4]triazin-6-yl)phenyl)acrylamide], the “Selectivity FGFR1/FGFR2” value on FGFR1 was “A+ (Selectivity of FGFR1/FGFR2 greater or equal to 500)”. In addition, the concentration for half-maximal inhibition (IC50) at FGFR2 was greater than 10 nM; in the experiment on SNU16 cells it was no more than 10 nM. Also, on FGFR3, the “Selectivity FGFR3/FGFR2” value is listed as “A+ (Selectivity of FGFR3/FGFR2 greater or equal to 150)”.
Regarding `C=C(F)C(=O)Nc1ccc(-c2c(-c3ccc(Oc4nccc(C)n4)c(F)c3)c3c(N)ncc(C#N)c3n2C)cc1` [Compound 344, N-(4-(4-amino-7-cyano-3-(3-fluoro-4-((4-methylpyrimidin-2-yl)oxy)phenyl)-1-methyl-1H-pyrrolo[3,2-c]pyridin-2-yl)phenyl)-2-fluoroacrylamide], the “Selectivity FGFR1/FGFR2” value on FGFR1 is reported as “A+ (Selectivity of FGFR1/FGFR2 greater or equal to 500)”. The values for the IC50 on FGFR2 and with SNU16 cells were less than 5 nM and no more than 10 nM, respectively. Also, the “Selectivity FGFR3/FGFR2” value at FGFR3 was “A (Selectivity of FGFR3/FGFR2 less than 150 but greater than or equal to 100)”.
For the compound `C=C(F)C(=O)Nc1ccc(-c2nn3ncnc(N)c3c2-c2ccc(C(=O)NC3CC(F)(F)C3)c(OC)c2)c(F)c1` [Compound 234], the “Selectivity FGFR1/FGFR2” value on FGFR1 was “A+ (Selectivity of FGFR1/FGFR2 greater or equal to 500)”. For the same compound, the figures for the IC50 on FGFR2 and in the experiment with SNU16 cells were less than 5 nM and no more than 10 nM, respectively. Moreover, at FGFR3, the “Selectivity FGFR3/FGFR2” value was “A+ (Selectivity of FGFR3/FGFR2 greater or equal to 150)”.
Taken in the same sequence, the figures for `C=CC(=O)Nc1ccc(-c2nn3ncnc(N)c3c2-c2ccc(Oc3nccc(NC)n3)c(F)c2)cc1` [Compound 433, N-(4-(4-amino-5-(3-fluoro-4-((4-(methylamino)pyrimidin-2-yl)oxy)phenyl)pyrazolo[5,1-f][1,2,4]triazin-6-yl)phenyl) acrylamide] were “A+ (Selectivity of FGFR1/FGFR2 greater or equal to 500)”, 5 to 10 nM, no more than 10 nM and “A+ (Selectivity of FGFR3/FGFR2 greater or equal to 150)”.
For the compound `C=CC(=O)Nc1ccc(-c2c(-c3ccc(C(=O)NCC)c(OC)c3)c3c(N)ncc(C#N)c3n2C)cc1` [Compound 107, 4-(2-(4-acrylamidophenyl)-4-amino-7-cyano-1-methyl-1H-pyrrolo[3,2-c]pyridin-3-yl)-N-ethyl-2-methoxybenzamide], the “Selectivity FGFR1/FGFR2” value on FGFR1 is on record as “A+ (Selectivity of FGFR1/FGFR2 greater or equal to 500)”. Besides, the IC50 was less than 5 nM on FGFR2 and no more than 10 nM in the experiment with SNU16 cells. Besides, the “Selectivity FGFR3/FGFR2” value on FGFR3 is “A (Selectivity of FGFR3/FGFR2 less than 150 but greater than or equal to 100)”.
Taken in the same sequence, the figures for `C=CC(=O)Nc1ccc(-c2nn3ncnc(N)c3c2-c2ccc(Oc3cccc(C)n3)c(F)c2)cc1` [Compound 366] were “A+ (Selectivity of FGFR1/FGFR2 greater or equal to 500)”, less than 5 nM, no more than 10 nM and “A+ (Selectivity of FGFR3/FGFR2 greater or equal to 150)”.
